Experimental data published in paper PMC5460016, “Inhibition of gelatinase B/MMP-9 does not attenuate colitis in murine models of inflammatory bowel disease” (Nature Communications, 2017).

Key:
MMP-3 = conditions: Supplementary table 2, no method in this paper, known effects, cited from earlier work
Description: (§1) page 11: Supplementary table 2: IC50 values of peptide inhibitors A and B towards MMP -3, -8, -9 and TACE (μM). Name Peptide sequences† MMP-3 MMP-8 MMP-9 TACE Peptide inhibitor […] No inhibition 17.6 12.5 7.0 (CPU 1) Peptide inhibitor […] 7.0 0.036 0.16 15 (CPU 2) † Peptide sequences are in one-letter codes for amino acids. Pyr stands for pyridylalanine. Supplementary table 3: Primer sequences used for qRT-PCR analyses. Gene Forward primer Reverse primer Probe Mmp3 [NT] Mmp8 ...

MMP-8 = conditions: Supplementary table 2; no method in this paper; known effects; read-out: IC50 towards MMP-8; cited from earlier work
Description: as §1

MMP-9 = conditions: Supplementary table 2; no method in this paper; known effects; read-out: IC50 towards MMP-9; cited from earlier work
Description: as §1

TACE = conditions: Supplementary table 2; no method in this paper; known effects; read-out: IC50 towards TACE; cited from earlier work
Description: as §1

[1] = test system: C57BL/6J mice with acute DSS-induced colitis; test: Treatment of acute DSS-induced colitis with peptide inhibitors; conditions: for severity of intestinal inflammation by histopathological analysis (histological inflammation and activity scores): all three administration schemes (therapeutic, prophylactic, osmotic pump); for body weight loss at time of killing: Mann-Whitney U
Description: Acute and chronic dextran sodium sulphate (DSS) colitis were induced as described previously[13][39]. Acute colitis was induced in 8–10 weeks old male and female mice by oral administration of 2–3% DSS (35–50 kDa; MP Biomedicals, Illkirch, France) in the drinking water during 7 days followed by 2–3 days on normal drinking water. All mice were killed at day 9 (Fig. 1a). […] Control mice (WT and MMP-9^−/−) received normal drinking water throughout the duration of the experiment. The body weight of the mice was monitored daily or every other day in case of the acute model, whereas in the chronic model, body weight was followed every 3–4 days. Of importance, WT and MMP-9^−/− mice were co-housed (maximally 5 mice per cage) during the experiments ensuring identical environmental conditions as well as controlling for cage-related effects (for example, coprophagia and intake of food and (DSS-supplemented) drinking water). Both the acute and chronic DSS experiments were repeated three times whereby results could be replicated each time and in total 79 mice were used in the acute models and 35 mice in the chronic models. The number of mice needed was estimated based on previous experience[13] and included at least 5 mice per group to ensure adequate power of detection. […] These mice were excluded from further analyses. […] No randomization was applied before start of the experiments.
Animals were euthanized with sodium pentobarbital (Nembutal, Ovation Pharmaceuticals Inc. Deerfield, USA). The DAI was calculated based on three parameters: loss of body weight (one point for each 5% loss of body weight), consistency of stools (normal=0, soft=2, liquid=4) and presence of gross blood in stools (0=none, 1=present)[13][39]. The colon was isolated, weighted and its length measured from the ileocecal junction to the anus. […] The macroscopic damage score was calculated based on extent of inflammation along the colon (in cm, multiplied by 2 if severe), colonic mesenterial adhesion (0=none, 1=mild, 2=severe) and colonic hyperaemia (0=none and 1=present)[13][39].
Acute colitis was induced in male and female mice via administration of 2% DSS in the drinking water for 7 days followed by 2–4 days on normal drinking water.

[2] = test system: Mmp3, Mmp8, Mmp9 mRNA in colonic mouse tissue; test: Colonic mRNA expression of Mmps (quantitative RT-PCR) after peptide inhibitor administration; assay type: in vivo; conditions: DSS mice
Description: Figure 10 Relative mRNA expression of specific Mmps and Tace after administration of peptide MMP inhibitors. Relative mRNA expression measured in colonic mouse tissue after a therapeutic injection scheme (n=16) (a), a prophylactic injection scheme (n=23) (b) and continuous osmotic pump delivery (n=22) (c) of peptide inhibitors A and B. Expression levels were normalized to the control condition (water+saline) and 18S with the use of the 2-delta delta CT method. Mean values with s.e.m. are shown. Statistical analyses were performed with Mann–Whitney U tests (*P<0.05, **P≤0.01; NS, not significant). Colour codes are similar as in Figs 8 and 9.
Snap-frozen mouse colonic fragments were mechanically homogenized with the use of Precellys 24 homogenizer (VWR, Leuven, Belgium). Total RNA was extracted according to the manufacturer's guidelines (RNeasy Mini kit, Qiagen, Hilden, Germany, #74104) and quantified with the use of a Nanodrop ND-1000 Spectrophotometer (Isogen Life Science, Temse, Belgium). cDNA was synthesized with the use of High-Capacity cDNA Reverse Transcription Kit (Applied Biosystems, Foster City, CA, USA). Mmp3, Mmp8, Mmp9 and Tace mRNA levels were analysed in duplicate on 25 ng cDNA by quantitative RT-PCR with the use of TaqMan Universal PCR Master Mix from Applied Biosystems and primer and probe sets from Integrated DNA Technologies (Leuven, Belgium; Supplementary Table 3). Data were normalized to 18S ribosomal RNA levels.

[3] = competitive ELISA, plasma of DSS-treated mice, all three administration schemes
Experimental: To ensure that therapeutic levels of peptide inhibitors A and B were attained during all three administration schemes, plasma levels were measured with competitive ELISAs as described previously.
Supplementary figure 8: Levels of peptide inhibitors A and B in plasma of DSS-treated mice at time of sacrifice. (a) Plasma levels of peptide inhibitor A measured with ELISA in DSS-treated mice that received either peptide inhibitor A (n=19) or saline (n=9) injections for all three different administration schemes (therapeutic, prophylactic and continuous).
(b) Similar ELISA analyses […]
were performed for detection of peptide inhibitor B in plasma of DSS-treated mice (n=19). This […]
similar as in Figures 9 and 10. Box plots are shown with 5-95 percentiles.
(1 picture or pasted object on this page, not shown here)

[4] = continuous osmotic pump delivery, DSS mice, versus saline
[5] = prophylactic scheme: daily i.p. 250 μg from day 1, 2% DSS mice, versus saline
[6] = therapeutic or prophylactic schemes (daily i.p. 250 μg), DSS mice
[7] = therapeutic scheme: daily i.p. 250 μg from day 6, 2% DSS mice, versus saline

| Substance | IC50 (MMP-8) [µM] | IC50 (MMP-9) [µM] | IC50 (TACE) [µM] | severity of intestinal inflammation by histopathological analysis (histological inflammation and activity scores) ([1]; DSS mice) | other colonic measurements (colon weight, colon/body weight ratio and colon weight/length ratio) [1, 4] | body weight loss [1, 5] | disease activity index (DAI) [1, 5] | macroscopic damage score [1, 6] | disease activity index (DAI) [1, 7] | body weight loss at time of killing [1, 7] | plasma levels of peptide inhibitor at time of sacrifice [3] | further results |
| --- | --- | --- | --- | --- | --- | --- | --- | --- | --- | --- | --- | --- |
| IVRRADRAAVP-GGGG-P(Pyr)CBRGE [Peptide inhibitor B] | 0.036 | 0.16 | 15 | did not observe a significant effect | not significantly different | no differences were observed | not significantly different | not altered | higher | significantly more body weight loss | inhibitory plasma levels were indeed reached | IC50 (MMP-3; read-out: IC50 towards MMP-3): 7 µM; colonic Mmp8 and Mmp3 mRNA expression ([2]; continuous osmotic pump delivery, compared to saline): significantly higher; colonic Mmp9 mRNA expression ([2]; continuous osmotic pump delivery, compared with peptide inhibitor A or saline): significantly increased; colonic expression of Mmp9 mRNA ([2]; prophylactic scheme, compared to saline, qRT-PCR normalized to 18S): significantly increased expression of Mmp9; colonic expression of Mmp3, Mmp8 and Mmp9 mRNA ([2]; therapeutic scheme, compared to peptide inhibitor A or saline, qRT-PCR normalized to 18S): appeared to be higher |
| P(Pyr)CBRGE-GGGG-IVRRADRAAVP [Peptide inhibitor A] | 17.6 | 12.5 | 7 | did not observe a significant effect | not significantly different | no differences were observed | not significantly different | not altered | no difference was observed | no difference in body weight loss | inhibitory plasma levels were indeed reached | IC50 towards MMP-3 (MMP-3): No inhibition; colon length ([1]; continuous osmotic pump delivery, DSS mice, versus peptide inhibitor B or saline): significantly longer; macroscopic damage score [1, 4]: lower macroscopic damage score; body weight loss ([1]; continuous s.c. osmotic pump delivery, 30 mg kg−1 per day, DSS mice, versus peptide inhibitor B and saline): mild protection with lower loss of body weight; disease activity index (DAI) ([1]; continuous s.c. osmotic pump delivery, 30 mg kg−1 per day, DSS mice, versus peptide inhibitor B or saline): significantly lower DAI |
